The supplement of paper PMC8967900

Columns and labels:
Experiment in all cases: selective drug sensitivity score (sDSS, relative to normal bone marrow) (sDSS (score)); higher = more potent and effective on the cell line relative to normal bone marrow cells
Conditions in all cases: 72 h
[1] = system: COG-LL-317
[2] = system: KASUMI-9
[3] = system: CCRF-HSB2
[4] = system: MN-60
[5] = system: MOLT-16
[6] = system: P30-OHKUBO
[7] = system: COG-LL-319h
[8] = system: NALM-6
[9] = system: KOPN-8
[10] = system: COG-LL-355h
[11] = system: NALM-16
[12] = system: MOLT-14
[13] = system: COG-LL-402h
[14] = system: COG-LL-394h
[15] = system: SUP-B15
[16] = system: 697
[17] = system: MOLT-4
[18] = system: PEER
[19] = system: P12-ICHIKAWA
[20] = system: HAL-01
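Further: ALL cell lines in 384-well plates, five doses spanning 10,000-fold, each plate scaled between vehicle and 100 µmol/L benzalkonium chloride controls, sDSS an adapted area-under-curve metric.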

SMILES | selective drug sensitivity score [1] | selective drug sensitivity score [2] | selective drug sensitivity score [3] | selective drug sensitivity score [4] | selective drug sensitivity score [5] | selective drug sensitivity score [6] | selective drug sensitivity score [7] | selective drug sensitivity score [8] | selective drug sensitivity score [9] | selective drug sensitivity score [10] | selective drug sensitivity score [11] | selective drug sensitivity score [12] | selective drug sensitivity score [13] | selective drug sensitivity score [14] | selective drug sensitivity score [15] | selective drug sensitivity score [16] | selective drug sensitivity score [17] | selective drug sensitivity score [18] | selective drug sensitivity score [19] | selective drug sensitivity score [20]
CCNC(=O)C[C@@H]1N=C(c2ccc(Cl)cc2)c2cc(OC)ccc2-n2c(C)nnc21 [Molibresib] (top concentration 10000 nM) | 3.2 | 9.1 | -0.5 | 6.3 | 4.9 | 6.4 | 6.9 | 3.2 | 10.6 | 1.7 | 1.6 | -2.1 | 5.3 | -2.1 | 3.2 | 7.4 | -4.4 | -3 | 3 | 2.7
CC(C)(C)c1nc(-c2cccc(NS(=O)(=O)c3c(F)cccc3F)c2F)c(-c2ccnc(N)n2)s1 [Dabrafenib] (top concentration 2500 nM) | 0.18 | 3.58 | 4.48 | -0.92 | 4.68 | 5.18 | -0.92 | -0.52 | 8.48 | 0.38 | -1.52 | 1.48 | 0.48 | -0.22 | 1.88 | 11.5 | -1.52 | 3.48 | 1.18 | 1.18
COc1cccc2c1C(=O)c1c(O)c3c(c(O)c1C2=O)C[C@@](O)(/C(CO)=N/NC(=O)CCCCCN1C(=O)C=CC1=O)C[C@@H]3O[C@H]1C[C@H](N)[C@H](O)[C@H](C)O1 [Aldoxorubicin] (top concentration 1000 nM) | 14.8 | 8.64 | 14.8 | 0.84 | 16.6 | 7.34 | 14 | 4.34 | 14.2 | 4.44 | -0.46 | 12.9 | 14.3 | 8.24 | 12.5 | 10.2 | 11.8 | -3.06 | 5.04 | 0.34
COc1cc(Nc2ncc3c(n2)-c2ccc(Cl)cc2C(c2c(F)cccc2OC)=NC3)ccc1C(=O)O [Alisertib] (top concentration 10000 nM) | 29.6 | 25 | 26.4 | -3.42 | 29.6 | 25.4 | 23.3 | 20.1 | 21.3 | 7.98 | 0.28 | 21 | 16.1 | 2.28 | 24 | 25 | 21.8 | 26.6 | 22.6 | 17.8
CCCCCCCCCCCCCCCCOP(=O)([O-])OCC[N+](C)(C)C [Miltefosine] (top concentration 100000 nM) | 1.06 | 0.46 | 7.26 | 3.26 | -1.34 | 2.26 | 2.76 | 1.66 | 7.56 | 1.36 | -0.34 | 0.76 | 0.46 | -1.54 | 2.36 | 1.46 | 0.26 | 13.1 | 6.56 | -1.34
NC(=O)N1CCC(CC(=O)N2CCC([C@H]3c4ncc(Br)cc4CCc4cc(Cl)cc(Br)c43)CC2)CC1 [Lonafarnib] (top concentration 100000 nM) | 14 | 9.14 | 9.14 | 2.24 | 11.2 | 7.84 | 7.04 | 6.24 | 12.8 | 9.34 | 4.04 | 14.1 | 3.64 | 3.04 | 11.9 | 7.54 | 10.5 | 5.94 | 6.74 | 3.44
CNc1ncc2cc(-c3cc(NC(=O)NCCC(C)(C)C)c(F)cc3C)c(C)nc2n1 (top concentration 10000 nM) | -0.24 | 9.16 | 20.2 | -0.94 | 5.06 | 5.86 | 12.1 | 6.66 | 21.3 | 9.16 | 1.76 | 12.5 | 6.76 | 5.76 | 16.1 | 10.5 | 6.26 | 15 | 11 | 4.66
FC(F)(F)c1ccc(CNc2ccc(Cc3c[nH]c4ncc(Cl)cc34)cn2)cn1 [Pexidartinib] (top concentration 10000 nM) | -0.52 | 1.18 | 1.38 | -1.52 | -0.72 | 4.48 | -2.22 | 0.18 | 0.68 | -1.92 | -1.22 | -2.02 | -2.22 | -1.32 | -0.22 | 3.18 | -1.92 | -0.32 | 0.18 | 2.08
Nc1ccccc1NC(=O)c1ccc(CNC(=O)OCc2cccnc2)cc1 [Entinostat] (top concentration 10000 nM) | 2.98 | 8.28 | 3.28 | 1.68 | 6.58 | 5.68 | 12.7 | 1.08 | 11.6 | 1.98 | 0.28 | 7.98 | 4.98 | -3.72 | 7.08 | 8.28 | 1.48 | 6.88 | 7.58 | 2.58
CNC(=O)c1cccc(-c2ccc3c(N4CCOC[C@@H]4C)nc(N4CCOC[C@@H]4C)nc3n2)c1 [Vistusertib] (top concentration 10000 nM) | 2.12 | 11.8 | 5.42 | 2.72 | 5.62 | 11.7 | 10.6 | 3.92 | 19.7 | 6.12 | 2.22 | 2.12 | 9.12 | -1.28 | 10.7 | 15.1 | 3.12 | 5.22 | 3.72 | 5.12
O=C(Nc1cccc(NC(=O)c2cccc(O)c2O)c1)c1cccc(O)c1O [MST-312] (top concentration 10000 nM) | 18.2 | 5 | 12.8 | 9.8 | 17.3 | 8.1 | 12.8 | 9.5 | 15.2 | 3.2 | 2.8 | 5.8 | 8.6 | 1.1 | 9.5 | -1.2 | 9.2 | 9.4 | 6.6 | 7.6
COc1ccc(COc2cc3oc(=O)c4cc(C(C)O)ccc4c3cc2OC)cc1 (stereo not given) [Palomid-529] (top concentration 10000 nM) | 0.06 | 0.66 | 1.46 | -0.24 | 4.36 | -0.24 | 17.2 | -0.24 | 10.3 | -0.24 | -0.24 | 2.76 | 0.26 | -0.24 | 5.26 | 0.06 | 2.26 | 4.16 | -0.14 | -0.24
CC(C)[C@@H](CS(=O)(=O)C(C)C)N1C(=O)[C@@](C)(CC(=O)O)C[C@H](c2cccc(Cl)c2)[C@H]1c1ccc(Cl)cc1 [AMG-232] (top concentration 10000 nM) | 15.1 | 13.1 | 9.26 | 3.16 | 8.06 | 8.96 | 11.4 | 7.96 | 10.4 | 8.76 | -10.2 | 10.1 | 9.26 | 8.76 | 16.5 | 9.06 | 10.1 | -6.94 | -8.24 | 11
CN(c1ncccc1CNc1nc(Nc2ccc3c(c2)CC(=O)N3)ncc1C(F)(F)F)S(C)(=O)=O (top concentration 10000 nM) | -1.28 | 0.12 | 1.42 | -1.08 | 2.82 | 2.72 | 4.52 | 5.22 | 1.02 | 0.82 | 0.42 | -0.08 | 2.42 | -0.08 | 4.62 | 2.62 | 1.02 | 7.22 | -0.08 | -0.18
C[C@@H](Nc1cc(F)cc(F)c1)c1cc(C(=O)N(C)C)cc2c(=O)cc(N3CCOCC3)oc12 [AZD-8186] (top concentration 1000 nM) | -0.26 | 6.04 | 1.64 | -0.26 | -0.26 | 7.24 | 0.74 | 5.14 | 3.44 | 5.04 | -0.06 | -0.26 | 5.14 | -0.26 | -0.26 | 3.64 | -0.06 | -0.26 | -0.26 | 8.14
CC(C)[C@H](C(=O)Nc1ccc(C(=O)NO)cc1)c1ccccc1 [AR-42] (top concentration 10000 nM) | 6.48 | 8.08 | 7.28 | 1.48 | 8.38 | 5.18 | 10.8 | 4.48 | 10.6 | 6.68 | 1.68 | 8.48 | 10.8 | 2.08 | 9.58 | 9.58 | 7.08 | 9.18 | 8.28 | 3.28
CC1(C)CCC(c2ccc(Cl)cc2)=C(CN2CCN(c3ccc(C(=O)NS(=O)(=O)c4ccc(N[C@H](CCN5CCOCC5)CSc5ccccc5)c(S(=O)(=O)C(F)(F)F)c4)cc3)CC2)C1 [Navitoclax] (top concentration 10000 nM) | 20.5 | 19.8 | 8.92 | -8.58 | 12.2 | 16.8 | 22.1 | 11.7 | 23.2 | 28.9 | 19.2 | 12.7 | 23.4 | 19.2 | 27.5 | 13 | 15.6 | 12.2 | 17.6 | 14.8
CO[C@@H]1[C@H](N(C)C(=O)c2ccccc2)C[C@H]2O[C@]1(C)n1c3ccccc3c3c4c(c5c6ccccc6n2c5c31)C(=O)NC4 [Midostaurin] (top concentration 10000 nM) | 8.96 | 11.7 | 11.7 | -1.24 | 12.5 | 14.4 | 11.7 | 7.56 | 12.1 | 4.66 | -0.64 | 11.6 | 6.86 | -3.84 | 8.96 | 14 | 8.66 | 4.16 | 9.76 | 3.06
